Experiments:
[1] = system: yeast cells expressing human topoisomerase I; experiment: Yeast cytotoxicity assay, strain expressing human topo I; type: cell-based, S. cerevisiae; settings: plates with 1 µM drug (camptothecin 0.5 µM), 3 days at 30°C
From the text: (§1) It has been established that yeast can survive when topoisomerase I function is obliterated, and that the topoisomerase I poisons only kill cells having a functional topoisomerase I (Bjornsti et al. Cancer Res. 49:6318-6323 (1989)).
(§2) The topoisomerase I-specific in vivo cytotoxicity assay was adapted from Knab et al. (Knab et al., J. Biol. Chem. 268:22322-22330 (1993)). In this system, various topo I genes cloned into the single copy yeast plasmid vector, YCpGAL1 (Knab et al., J. Biol. Chem. 268:22322-22330 (1993)), are expressed under the control of the GAL1 promoter in the JN2-134 strain of S. cerevisiae (MATa, rad52::LEU2, trp1, ade2-1,his7, ura3-52, isel, top1-1, leu2) (Bjornsti et al., Cancer Res. 49:6318-6323 (1989)). The topo I constructs in the vector are, respectively, the wild-type yeast topo I (YCpGAL-ScTOP1), a non-functional yeast topo I where the active site tyrosine-727 is mutated to a phenylalanine (YCpGAL1-Sctop1Y727F) (Knab et al., J. Biol. Chem. 268:22322-22330 (1993)), and the wild type human topoisomerase I (YCpGAL-hTOP1) (Bjornsti et al., Cancer Res. 49:6318-6323 (1989)). To qualitatively test the cytotoxicity and the topo I specificity of the drugs, yeast cells containing the specific plasmid were serially diluted (5-fold) and were grown in dropout medium supplemented with uracil and 2% galactose In addition, the plates contained: A: Control, no drug in the plate; B: Camptothecin (CPT), 0.5 µM; C: Coralyne, 1 µM; D: Methylenedioxy-dihydro-demethyl-coralyne (MDD-Coralyne), 1 µM, and E: Nitidine, 1 µM. The plates were grown for 3 days at 30°C to assess the lethal effect of the different compounds on the various topoisomerase I enzymes expressed in S. cerevisiae.and the drug being tested.

[2] = system: yeast cells expressing functional yeast topoisomerase I; experiment: Yeast cytotoxicity assay, strain expressing wild-type yeast topo I; type: cell-based, S. cerevisiae; settings: plates with 1 µM drug (camptothecin 0.5 µM), 3 days at 30°C
From the text: as §1, §2

[3] = system: yeast cells expressing non-functional yeast topoisomerase I; experiment: Yeast cytotoxicity assay, strain expressing non-functional yeast topo I; type: cell-based, S. cerevisiae; settings: plates with 1 µM drug (camptothecin 0.5 µM), 3 days at 30°C
From the text: as §1, §2

[4] = molecular target: T1, recombinant CPT-K5 topoisomerase I (Homo sapiens, UniProt P11387, D533G); experiment: Cleavage assay with camptothecin-resistant mutant topo I; type: biochemical; settings: relative to wildtype human topoisomerase I
T1 construct: 15 amino acid vector-derived fusion (pET-11a leader); made in house; host or cells: E. coli BL21(DE3)
T1 sequence (P11387 1-765 D533G): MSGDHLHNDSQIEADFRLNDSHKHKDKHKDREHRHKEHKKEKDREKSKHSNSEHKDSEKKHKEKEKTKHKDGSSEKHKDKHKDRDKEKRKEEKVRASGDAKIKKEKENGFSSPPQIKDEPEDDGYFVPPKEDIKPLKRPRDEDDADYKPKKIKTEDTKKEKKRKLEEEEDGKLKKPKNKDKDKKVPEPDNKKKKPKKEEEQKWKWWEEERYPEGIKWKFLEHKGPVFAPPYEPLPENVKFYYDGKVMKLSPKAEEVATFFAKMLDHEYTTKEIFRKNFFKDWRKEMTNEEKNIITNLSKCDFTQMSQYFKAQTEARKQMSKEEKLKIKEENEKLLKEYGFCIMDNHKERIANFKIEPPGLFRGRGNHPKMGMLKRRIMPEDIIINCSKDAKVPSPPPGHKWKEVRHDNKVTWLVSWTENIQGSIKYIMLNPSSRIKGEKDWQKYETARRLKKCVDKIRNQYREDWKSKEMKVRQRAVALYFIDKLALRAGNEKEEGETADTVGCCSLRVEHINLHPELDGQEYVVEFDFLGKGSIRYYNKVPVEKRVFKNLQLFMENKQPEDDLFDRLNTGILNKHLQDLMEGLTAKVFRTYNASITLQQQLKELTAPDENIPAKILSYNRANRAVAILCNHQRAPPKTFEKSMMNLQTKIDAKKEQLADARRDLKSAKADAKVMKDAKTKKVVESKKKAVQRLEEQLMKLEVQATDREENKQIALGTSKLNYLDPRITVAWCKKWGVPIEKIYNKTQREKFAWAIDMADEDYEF
Description: Cleavage assays for the recombinant topoisomerases I and calf thymus topoisomerases I and II were done as described (Liu et al., J. Biol. Chem. 258:15365-15370 (1983)). The plasmid YEpG DNA used for the cleavage assays was prepared and labeled at its 3'-end using the published procedures.

[5] = system: human epidermoid carcinoma KB 3-1 cell line; experiment: MTA cytotoxicity assay, epidermoid carcinoma cells; type: cell-based; settings: KB 3-1, 96 h, read-out: Cytotoxicity KB3-1
Description: (§3) The results were plotted and the IC50 then measured.
(§4) The coralyne analog 7c was tested for its effectiveness against glioblastoma cells. The assay used was similar to that described above for the RPMI-8402 cell line. The results are shown in table 2 below which compares the effect of Compound 7c against the leukemia cell line (RPMI 8402), epidermal carncinoma (KB3-1) and glioblastoma (SF-268): Table 2

[6] = system: glioblastoma cell line SF-268; experiment: MTA cytotoxicity assay, glioblastoma cells; type: cell-based; settings: Homo sapiens, SF-268, 96 h, read-out: Cytotoxicity SF-268
Description: as §3, §4

[7] = system: Human lymphoblast RPMI 8402 cells; experiment: MTT-microtiter plate tetrazolinium cytotoxicity assay (MTA); type: cell-based; settings: Homo sapiens, RPMI 8402, 96 h, read-out: Cytotoxicity RPMI 8402
From the text: as §3

Row | Compound | cytotoxicity against yeast cells expressing human topoisomerase I (in words) [1] | cytotoxicity against yeast cells expressing functional yeast topoisomerase I (in words) [2] | cytotoxicity against yeast cells expressing non-functional yeast topoisomerase I (in words) [3] | resistance of recombinant CPT-K5 topoisomerase I to the drug [4] | IC50 [5] | IC50 [6] | IC50 [7]
1 | Methylenedioxy-dihydro-demethyl-coralyne [MDD-coralyne] | highly cytotoxic | not cytotoxic | not cytotoxic | – | – | – | –
2 | COc1cc2c[n+](C)c3c4cc5c(cc4ccc3c2cc1OC)OCO5 [Nitidine, nitidine] | highly cytotoxic | not cytotoxic | not cytotoxic | less than 10 fold | – | – | –
3 | COc1cc2cc3c4cc(OC)c(OC)cc4cc[n+]3c(C)c2cc1OC [coralyne] | no cytotoxicity | resistant | no cytotoxicity | – | 0.9 µg/mL | 0.1 µg/mL | 3 µg/mL

Reference: patent EP0888346B1, “CORALYNE ANALOGS AS TOPOISOMERASE INHIBITORS” (RUTGERS, THE STATE UNIVERSITY OF NEW JERSEY, priority 1996, dated 1997)
